Laboratory results as given in BindingDB's records for doi:10.1021/cb4002602 (National University of Singapore, 2013).

target: Protein disulfide-isomerase (Bos taurus) (UniProt P05307); assay: The assay was carried out in 384-well plates according to literature procedures [46]. Each well contained 100mM sodium phosphate and 0.2mM EDTA pH 7.0. 10ng PDI was pre-incubated with various concentration of probes (4% DMSO) in 20uL buffer for 30 min at 37 degrees Celsius, followed by the addition of insulin (0.16mM final concentration) and DDT (1mM
Sequence (P05307 whole entry, looked up): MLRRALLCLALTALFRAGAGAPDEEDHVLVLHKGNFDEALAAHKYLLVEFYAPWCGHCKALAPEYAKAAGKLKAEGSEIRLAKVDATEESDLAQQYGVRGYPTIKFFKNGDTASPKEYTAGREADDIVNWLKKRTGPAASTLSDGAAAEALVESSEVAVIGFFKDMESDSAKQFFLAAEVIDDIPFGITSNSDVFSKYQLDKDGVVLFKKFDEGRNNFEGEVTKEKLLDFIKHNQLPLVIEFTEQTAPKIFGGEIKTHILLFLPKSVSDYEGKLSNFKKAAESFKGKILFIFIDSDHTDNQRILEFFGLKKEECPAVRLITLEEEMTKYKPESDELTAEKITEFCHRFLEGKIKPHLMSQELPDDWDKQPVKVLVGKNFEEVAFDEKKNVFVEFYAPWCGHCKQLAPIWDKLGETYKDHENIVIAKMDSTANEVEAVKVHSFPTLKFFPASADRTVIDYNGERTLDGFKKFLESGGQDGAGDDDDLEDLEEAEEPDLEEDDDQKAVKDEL

`C#CCNC(=O)[C@H](Cc1ccc(OS(=O)(=O)C=C)cc1)NC(=O)C(=O)c1ccccc1` [PDI inhibitor P23] and `C#CCNC(=O)[C@H](Cc1ccc(OS(=O)(=O)C=C)cc1)NC(=O)CCc1ccccc1` [PDI inhibitor P24] are within 1.5-fold of each other in IC50: 1800 nM for the first, 2200 nM for the second.

Going from `C#CCNC(=O)[C@H](Cc1ccc(OS(=O)(=O)C=C)cc1)NC(=O)c1c(F)c(F)c(F)c(F)c1F` [PDI inhibitor P13] to `C#CCNC(=O)[C@H](Cc1ccc(OS(=O)(=O)C=C)cc1)NC(=O)c1cc(F)c(F)c(OC)c1F` [PDI inhibitor P22], the IC50 falls from 2500 nM to 1400 nM (1.8-fold).

`C#CCNC(=O)[C@H](Cc1ccc(OS(=O)(=O)C=C)cc1)NC(=O)c1ccc(C)c(F)c1` [PDI inhibitor P21] and `C#CCNC(=O)[C@H](Cc1ccc(OS(=O)(=O)C=C)cc1)NC(=O)c1ccc(C)cc1C` [PDI inhibitor P7] are within 1.5-fold of each other in IC50: 2500 nM for the first, 3100 nM for the second.

First: C#CCNC(=O)[C@H](Cc1ccc(OS(=O)(=O)C=C)cc1)NC(=O)c1ccc2ccccc2c1 [PDI inhibitor P8]
Second: C#CCNC(=O)[C@H](Cc1ccc(OS(=O)(=O)C=C)cc1)NC(=O)c1ccc(OC)cc1 [PDI inhibitor P9]
The IC50 of the first is 2-fold lower: 2700 nM for the first, 5300 nM for the second. The first is the more potent here.

`C#CCCNC(=O)[C@H](Cc1ccc(OS(=O)(=O)C=C)cc1)NC(=O)[C@H](Cc1ccccc1)NC(=O)OC(C)(C)C` [PDI inhibitor P1] and `C#CCNC(=O)[C@H](Cc1ccc(OS(=O)(=O)C=C)cc1)NC(=O)[C@H](Cc1ccccc1)NC(=O)OC(C)(C)C` [PDI inhibitor P6] are within 1.5-fold of each other in IC50: 1700 nM for the first, 1900 nM for the second.

First: C=CS(=O)(=O)Oc1ccc(C[C@H](NC(=O)[C@H](Cc2ccccc2)NC(=O)OC(C)(C)C)C(=O)NCCNC(=O)CCCC[C@@H]2SCC3NC(=O)NC32)cc1 (stereo partly drawn) [PDI inhibitor P11]
Second: C#CCCNC(=O)[C@H](Cc1cc(=O)oc2cc(OS(=O)(=O)C=C)ccc12)NC(=O)[C@H](Cc1ccccc1)NC(=O)OC(C)(C)C [PDI inhibitor P2]
The IC50 of the first is 1.6-fold lower: 1100 nM for the first, 1800 nM for the second. The first is the more potent here.

`C#CCNC(=O)[C@H](Cc1ccc(OS(=O)(=O)C=C)cc1)NC(=O)c1cc(OC)c(OC)cc1Br` [PDI inhibitor P25] and `C#CCNC(=O)[C@H](Cc1ccc(OS(=O)(=O)C=C)cc1)NC(=O)c1ccc(F)cc1Cl` [PDI inhibitor P18] are within 1.5-fold of each other in IC50: 3400 nM for the first, 2800 nM for the second.

First: C#CCNC(=O)[C@H](Cc1ccc(OS(=O)(=O)C=C)cc1)NC(=O)C(C)(C)CC [PDI inhibitor P12]
Second: C#CCNC(=O)[C@H](Cc1ccc(OS(=O)(=O)C=C)cc1)NC(=O)C(Cl)CC (stereo partly drawn) [PDI inhibitor P20]
The IC50 of the first is 1.8-fold lower: 3200 nM for the first, 5700 nM for the second.

`C#CCNC(=O)[C@H](Cc1ccc(OS(=O)(=O)C=C)cc1)NC(=O)c1ccc(F)c(C(F)(F)F)c1` [PDI inhibitor P14] and `C#CCNC(=O)[C@H](Cc1ccc(OS(=O)(=O)C=C)cc1)NC(=O)c1ccc(CC)cc1` [PDI inhibitor P15] are within 1.5-fold of each other in IC50: 1000 nM for the first, 1100 nM for the second.

First: C#CCNC(=O)[C@H](Cc1ccc(OS(=O)(=O)C=C)cc1)NC(=O)CCc1ccc(OC)cc1 [PDI inhibitor P17]
Second: C#CCNC(=O)[C@H](Cc1ccc(OS(=O)(=O)C=C)cc1)NC(=O)C1(c2ccccc2)CC1 [PDI inhibitor P10]
The IC50 of the first is 1.6-fold higher: 3300 nM for the first, 2100 nM for the second.

Going from `COC(=O)C1(C)c2[nH]c3ccccc3c2CCN1C(=O)CCl` (stereo not drawn) [16F16] to `C#CCNC(=O)[C@H](Cc1ccc(OS(=O)(=O)C=C)cc1)NC(=O)C1(C)CC1(Cl)Cl` (stereo partly drawn) [PDI inhibitor P19], the IC50 falls from 74000 nM to 2500 nM (30-fold). The second is the more potent here.

With `C#CCNC(=O)[C@H](Cc1ccc(OS(=O)(=O)C=C)cc1)NC(=O)C1(C)CCCCC1` [PDI inhibitor P16] the IC50 was 2300 nM.
